This is an account of results in patent US20250388572A1, “USE OF HPK1 INHIBITOR IN PREVENTION AND/OR TREATMENT OF HUMAN PATHOGEN INFECTION” (priority 2022, published 2025).

One data set concerns MHV-A59 virus. In words: Pharmacodynamic evaluation for MHV, high-dose virus group. In kind it is in vivo, C57BL/6 mice. To be noted: 10 mg/kg daily, 2×10^6 PFU; for survival rate: all control mice died. Here is the method:
The effect of A2 on the prevention and treatment of MHV was investigated.
High-dose virus group: 21 male SPF grade C57BL/6 mice, aged 4 weeks, were divided into three groups: control group, precaution group and therapy group. These mice were anesthetized and then injected intrahepatically (i.h.) with 100 μL of DMEM containing 2×10^6 PFU MHV-A59 virus. The precaution group was given the first dose of A2 at 10 mg/kg 24 hours before the challenge, and the therapy group was given the first dose of A2 at 10 mg/kg 24 hours after the challenge, followed by daily continuous administration, both the precaution group and the therapy group being given a daily dose of 10 mg/kg. The weight change, clinical symptoms of disease and mortality of infected mice were monitored daily.

The test system of another data set is hPBMCs. In words: Pharmacodynamic evaluation for hPBMCs (IL-2 by ELISA). In kind it is cell-based, human. To be noted: 1 uM, 24 hours, CD3/CD28-activated hPBMCs. As for the experimental part: The hPBMCs used in this experiment were purchased from Shanghai AoNeng Biotechnology Co., Ltd. CD3 antibody was pre-coated onto a 96-well plate for future use. Cells were seeded into the 96-well plate at 2×10^6/ml, with 200 μL per well. CD28 antibody was added for activation, and Compound A2 was added at a final concentration of 1 μM. The supernatant was collected after 24 hours of treatment. IL-2 levels were determined by ELISA, and the effects of A2 and CD3/CD28 on the activation of hPBMCs were compared.
For orientation: ELISA stands for enzyme-linked immunosorbent assay.

The nature of another data set: in vivo. The note with it: male, cynomolgus monkey. As for the experimental part:
Three male Cynomolgus macaques were administrated a single dose via intravenous injection (iv, 1 mg/kg, n=3), followed by oral administration (po, 10 mg/kg, n=3) after washing out for one week. Intravenous injection was performed by formulating the compounds into 1.0 mg/mL solutions using water or 10% DMSO/30% PEG400/water and administering it at a volume of 1 mL/kg. Oral administration was performed by formulating the compounds into 2.0 mg/mL solutions or suspensions using water or 0.5% methylcellulose/1.7 meq 1N hydrochloric acid and administering it at a volume of 5 mL/kg.
The pharmacokinetic parameters of the compounds were calculated using the non-compartmental model.

A further data set deals with H1N1 (PR8 strain). The data set can be described thus: Pharmacodynamic evaluation for H1N1 in mice. In kind it is in vivo, C57BL/6 mice. The note with it: 3 mg/kg, oral. As for the experimental part: Six to eight-week-old female SPFC 57BL/6 mice (VitalRiver Laboratory Animal Technology Co., Ltd., SCXK (Beijing) 2016-0006, Beijing version) were infected with H1N1 (PR8 strain) and stimulated intranasally with 1×10^4 TCID50 virus nose drops. Mice were randomly divided into a therapy group and a control group. The therapy group was given 3 mg/kg of A2 orally, and the control group was given an equal amount of blank drug orally. The weight loss of mice in all groups was monitored daily.

For data set [1] the following is noted: mouse, microsomes, 1 h, 10 µM. Here is the method:
(§1) The procedure for identifying microsomal metabolites is as follows:
(§2) The compounds (test compounds and their numbers are shown below, among which compounds A1 and B1 are prepared by referring to the relevant method disclosed in CN110396087A) were weighed and dissolved into dimethyl sulfoxide to prepare a 20 mM solution. The compound stock solution was diluted with 50% acetonitrile in water (v/v) to a concentration of 1.0 mM as a working solution. Liver microsomes (20 mg/mL) were diluted to 1.27 mg/mL with 50 mM dipotassium hydrogen phosphate buffer as a liver microsome working solution. Reduced coenzyme was weighed and dissolved in 3307 μL of phosphate buffer (50 mM) to 5.0 mM as a reduced coenzyme working solution. For T=60 minutes samples, 4 μL of test working solution (1.0 mM) was added, followed by 316 μL of liver microsome working solution (1.27 mg/mL), and finally, 80 μL of reduced coenzyme working solution was added to start the reaction. For T=0 minutes samples, 316 μL of liver microsome working solution (1.27 mg/mL) was added and then 80 μL of reduced coenzyme working solution was added to start the reaction, without test solution incubation. After incubation at 37° C. for 60 minutes, 1200 μL of stop solution was added to stop the enzyme reaction. For T=0 minute samples, 4 μL of test working solution (1.0 mM) was added. The sample plate was placed on a vortexer and vortexed at 600 rpm for 5 minutes. Then, the sample plate was centrifuged at 4000 rpm for 10 minutes. The supernatant was removed, mixed, and dried at room temperature with nitrogen. The residue dried with nitrogen was redissolved in 300 μL of 10% acetonitrile (0.1% FA) solvent and then centrifuged at 4000 rpm for 15 minutes. The supernatant was transferred to a detection plate for mass spectrometry. Mass spectrometry was performed using LC/Q-Exactive plus.
(§3) 7-Ethoxycoumarin (10 μM) was selected as a positive control compound and operated in parallel with the compounds.

The test system of a further data set is SARS-Cov-2 virus. The data set can be described thus: Pharmacodynamic evaluation for Covid 19 in hamsters. In kind it is in vivo, Syrian golden hamsters. Here is the method: A total of 20 wild-type Syrian golden hamsters, aged 6-8 weeks, with half male and half female, were randomly divided into two groups: control group (n=4), and therapy group consisting of 5 mg/kg and 20 mg/kg groups, with 8 mice per group. Starting from day 0 (DO), the hamsters in the therapy group were given A2 orally at a total daily dose of 5 mg/kg or 20 mg/kg, and the control group was given an equal amount of blank drug orally daily. Meanwhile, on day 0, all hamsters were anesthetized and then inoculated intranasally with 100 uL of 1.375×10^6 PFU/mL SARS-Cov-2 virus. Clinical manifestations and body weight were monitored daily. At the end of the study, tissues (e.g., lungs) were collected and weighed, and virus RNA and infectious virus were then quantified.

The conditions of data set [2]: human, microsomes, 1 h, 10 µM. As for the experimental part:
as §1, §2, §3

The structures appear in SMILES notation. Like-named read-outs stand apart in the source and are kept apart here.

As usually defined, the bioavailability is dose-corrected exposure relative to a reference, in per cent. The AUC(0-t) is exposure summed from dosing to a finite time, without extrapolation to infinity. For orientation: clearance means the volume of plasma or blood freed of the substance per unit of time. For `[2H]C([2H])([2H])N1CCC(n2cc(-c3cnc(N)c(OCc4cccc(C#CC(C)(C)O)c4)c3)cn2)CC1` [Compound A2, 4-(3-(((2-amino-5-(1-(1-trideuteriomethylpiperidin-4-yl)-1H-pyrazol-4-yl)pyridin-3-yl)oxy)methyl)phenyl)-2-methylbut-3-yn-2-ol], the survival rate came out at 42.86% in the data set on MHV-A59 virus (precaution group) and 28.57% in the data set on MHV-A59 virus (therapy group). Moreover, the average body weight came to 13.39 g in the data set with MHV-A59 virus (precaution group, day 1); 16.34 g with MHV-A59 virus (precaution group, day 8); 12.48 g with MHV-A59 virus (therapy group, day 1); 11.39 g with MHV-A59 virus (therapy group, day 8). The “IL-2 concentration ratio (stimulated by A2−unstimulated)/(stimulated−unstimulated)” value in the data set on hPBMCs was 5.89 fold. The bioavailability in the data set “in vivo” came to 18.8%. The AUC(0-t) stood at 949 ng·h/mL in the data set “in vivo” (iv, 1 mg/kg) and 1760 ng·h/mL in “in vivo” (po, 10 mg/kg). Further, the clearance in “in vivo” (iv, 1 mg/kg) came to 16.7 mL/min/kg. In addition, the “survival rate of H1N1-infected mice” value with H1N1 (PR8 strain) is “significantly higher than that of the blank control group”. The “remaining percentage of the parent cores after 60 min” value amounted to 55.0% in data set [1] and 83.9% in data set [2]. The “body weight of SARS-Cov-2 infected hamsters” value in the data set with SARS-Cov-2 virus (20 mg/kg daily, oral) is “gained weight at a much faster rate”. Moreover, the “lung weight normalized to total body weight” value with SARS-Cov-2 virus (all A2 dose groups (5 mg/kg and 20 mg/kg daily, oral)) is on record as “decreased”.
